# Reference: ChEMBL document CHEMBL4689842, “EUbOPEN Chemogenomics Library wave 1” (2021)
# System: Fibroblast
# Assay: Incucyte cell viability with human fibroblast; also: filed as whole numbers so only -1 and 0 and 1 occur
# Assay type: toxicity, cell-based
# Conditions: 10 µM, compound concentration 10 uM
# [1] = 0 h, replicate number 1, timepoint 0 hours
# [2] = 6 h, replicate number 1, timepoint 6 hours
# [3] = 12 h, replicate number 1, timepoint 12 hours
# [4] = 18 h, replicate number 1, timepoint 18 hours
# [5] = 24 h, replicate number 1, timepoint 24 hours
# [6] = 12 h, replicate number 2, timepoint 12 hours
# [7] = 18 h, replicate number 2, timepoint 18 hours
# [8] = 24 h, replicate number 2, timepoint 24 hours
# [9] = 0 h, replicate number 2, timepoint 0 hours
# [10] = 6 h, replicate number 2, timepoint 6 hours
Compound,Growth Rate [1],Growth Rate [2],Growth Rate [3],Growth Rate [4],Growth Rate [5],Growth Rate [6],Growth Rate [7],Growth Rate [8],Growth Rate [9],Growth Rate [10]
CCc1ccc(OCc2ccccc2C(=O)Nc2ccc3nc(C)cc(N)c3c2)cc1.Cl,0,0,0,0,0,,,,,
O=C(c1cc2c(cc1F)OC(c1ccc(F)cc1)(c1ccc(Cl)cc1Cl)O2)N1CCOCC1 (centres undefined),0,,,1,1,0,0,0,,
CN(c1ccccc1CNc1nc(Nc2ccc3c(c2)CC(=O)N3)ncc1C(F)(F)F)S(C)(=O)=O,1,,1,0,0,,1,,0,
CCc1nn(CCCN2CCN(c3cccc(Cl)c3)CC2)c(=O)n1CCOc1ccccc1.Cl [NEFAZODONE HYDROCHLORIDE],0,0,0,0,0,,,,,
O=c1cc(N2CCOCC2)oc2c(-c3cccc4c3sc3ccccc34)cccc12,,0,0,0,0,,1,1,0,
C[C@]12CC[C@@H]3c4ccc(O)cc4CC[C@H]3[C@@H]1CC[C@@H]2O [ESTRADIOL],0,0,0,0,0,,,,,
CNC(=O)Nc1ccc2c(c1)[C@@]1(CC2)OC(=O)N(CC(=O)N(Cc2ccc(F)cc2)[C@@H](C)C(F)(F)F)C1=O [A-486],,0,0,0,0,1,1,,0,
CNC(=O)Nc1ccc(-c2nc(N3CC4CCC(C3)O4)c3cnn(C4CCC5(CC4)OCCO5)c3n2)cc1,1,0,0,0,0,,,,0,
CC(C)c1noc(N2CCC(COc3ccc(-c4ccc(S(C)(=O)=O)cc4)nc3)CC2)n1 [GSK-1292263],0,0,0,0,0,,,,,
C=CC(=O)Nc1ccc2[nH]c(=O)n(C3CCN(Cc4ccc(-c5nc6cc[nH]c(=O)c6cc5-c5ccccc5)cc4)CC3)c2c1 [Borussertib],0,,1,1,1,,0,0,,0
CCCSc1nc(N[C@@H]2C[C@H]2c2ccc(F)c(F)c2)c2nnn([C@@H]3C[C@H](OCCO)[C@@H](O)[C@H]3O)c2n1 [TICAGRELOR],0,0,0,0,0,,,,,
CC(C)(C)NC[C@H](O)COc1nsnc1N1CCOCC1 [TIMOLOL],0,1,1,1,1,0,0,0,1,0
O=c1[nH]c2ccccc2n1C1CCN(Cc2ccc(-c3[nH]c4cc5ncnc5cc4nc3-c3ccccc3)cc2)CC1,,,1,0,0,,,,0,
C#Cc1cccc(Nc2ncnc3cc(OCCOC)c(OCCOC)cc23)c1 [ERLOTINIB],0,0,0,0,0,1,,,,
Cc1nc(N2CC[C@H](O)C2)ncc1-c1cc(C(F)(F)F)cc2[nH]ncc12,0,1,0,0,0,,,,,0
C=CC(=O)Nc1cccc(Sc2nc(Nc3ccc(N4CCN(C)CC4)cc3)ncc2Cl)c1,,0,0,0,0,,,,,
CC(C)Oc1ccccc1C(=O)Nc1ccccc1C(=O)Nc1cccc(S(=O)(=O)C(F)(F)F)c1,0,,,,1,,,,,
Cc1cc(C)c(-n2ccn3nc(-c4cccnc4)cc23)cc1NC(=O)c1cc(C#N)cc(S(F)(F)(F)(F)F)c1 [BAY-826],0,1,1,1,1,,,,,

Compound,Growth Rate [1],Growth Rate [2],Growth Rate [3],Growth Rate [4],Growth Rate [5],Growth Rate [6],Growth Rate [7],Growth Rate [8],Growth Rate [9],Growth Rate [10]
Cl.O=C(O)c1cc(-c2ccc(C3CCNCC3)cc2)c2ccc(-c3ccc(C(F)(F)F)cc3)cc2c1,0,,1,1,1,0,0,0,,0
CNCc1ccccc1-c1csc([C@@H](C)Nc2nc(C)nc3cc(OC)c(OC)cc23)c1 [BAY-293],,0,0,0,0,,,,,
CNC(=O)c1ccc(Nc2ncc(C(F)(F)F)c(NCc3nccnc3N(C)S(C)(=O)=O)n2)cc1 [DEFACTINIB],0,,0,0,0,1,,,1,1
COC(=O)C1=C(C)NC(C)=C(C(=O)OCCCN2CCC(c3ccccc3)(c3ccccc3)CC2)[C@H]1c1cccc([N+](=O)[O-])c1 [NIGULDIPINE],0,0,0,0,0,,1,1,,
CN1CCN(Cc2ccc(Nc3ncc(Cl)c(Nc4ccccc4S(=O)(=O)N(C)C)n3)cc2)CC1 [DUBERMATINIB],0,,1,0,0,0,,,,
CC(C)NC(=O)N1CC[C@H](NC2=Nc3cc(F)ccc3N(CC(F)F)c3ccc(Cl)cc32)C1,,0,0,0,0,,,,,
C=CC(=O)Nc1cccc(Oc2nc(Nc3ccc(N4CCN(C)CC4)cc3OC)ncc2Cl)c1,,0,0,0,0,,,,,
CC(C)CC(=O)Nc1[nH]nc2c1CN(C(=O)C1CCN(C)CC1)C2(C)C [PHA-793887],0,0,0,0,0,,,,,
Cc1cccc(CN2CCN(C(c3ccccc3)c3ccc(Cl)cc3)CC2)c1.Cl.Cl (centres undefined),0,,1,1,0,0,0,,,
CN1CCN(Cc2cc(NC(=O)c3ccc4c(c3)CN(c3ccccc3)CC4)cc(C(F)(F)F)c2)CC1,,0,0,0,0,,,,1,
COc1cc(Nc2nccc(-c3cnn4nc(OC)ccc34)n2)cc(C(F)(F)F)c1,,0,0,0,0,,,,,
COc1ccccc1CN[C@H]1C2CCN(CC2)[C@H]1C(c1ccccc1)c1ccccc1 [CP-96345],0,,1,1,1,0,0,0,,0
CC1=C(C(=O)Nc2cc3cn[nH]c3cc2F)C(c2ccc(C(F)(F)F)cc2)CC(=O)N1 (centres undefined),0,,,,1,,,,,
Cc1c[nH]c2nccc(Oc3c(F)cc(Nc4cc(Cl)nc(N)n4)cc3F)c12 [BAY-549],0,,0,0,0,1,,,,
COc1ccc(-c2ccc3ncc4c(c3c2)n(-c2ccc(N3CCNCC3)c(C(F)(F)F)c2)c(=O)n4C)cn1.O=C(O)/C=C\C(=O)O [BGT-226],0,0,0,0,0,,,,,
Cc1ccc2c(c1)c1c(n2CCc2ccc(C)nc2)CCN(C)C1 [LATREPIRDINE],0,1,0,0,0,,,,,0
CC(C)OC(=O)N1CCC(Oc2ncnc3c2cnn3-c2ccc(S(C)(=O)=O)cc2F)CC1,0,1,1,1,0,0,0,,,0
COc1cc2ncn(-c3cc(OCc4ccccc4C(F)(F)F)c(C(N)=O)s3)c2cc1OC [GW843682X],0,1,0,0,0,,,,,
